Values joined by “and” are separate entries in the source; they are usually repeats but may differ in a detail not shown here. Identical values can stand only once.
What was measured:
[1] = test system: Ehrlich's ascites carcinoma cells; assay: Test 1: survival of mice inoculated with Ehrlich's ascites carcinoma cells; assay type: in vivo, ddY mice; conditions: i.p., 10 mg/kg/day for 5 days, from 24 hours after inoculation
Protocol: 5-week old ddY mice were intraperitoneally inoculated with 10^6 Ehrlich's ascites carcinoma cells. Since 24 hours later, 50 mg/ml suspension of a test compound in 0.25% (% by weight. The definition is to be followed hereinafter) solution of Pluronic F68 in physiological saline was intraperitoneally injected to 10 animals/group at a dose of 10 mg/kg/day for 5 days.

[2] = test system: human lung carcinoma A549 cells; assay: Test 3: colony formation of human lung carcinoma A549 cells; assay type: cell-based; conditions: for tumor growth suppressing effect: A549 cells; for activity at 10 µM: Homo sapiens, A549, 6-hour treatment at 10 μM, read-out: colony formation rate
Protocol: (§1) 14-methyl-1-pentadecanol and 18-methyl-1-nonadecanol were tested for tumor growth suppressing effects on three different tumor cell strains (Ehrlich's mouse ascites carcinoma cells, human lung carcinoma A549 cells and mouse neuroblastoma NAs-1 cells).
These isomonools suppressed the colony formation rate of human lung A549 cells to 2.2×10^-3 and 4.1×10^-3, respectively, by 6-hour treatment at 10 μM.

[3] = test system: Ehrlich's mouse ascites carcinoma cells; assay: Test 3: growth of Ehrlich's mouse ascites carcinoma cells; assay type: cell-based; conditions: for tumor growth suppressing effect: Ehrlich's cells; for activity at 10 µM: Mus musculus, Ehrlich, 120 h, 5-day treatment at 10 μM, read-out: growth suppressed to
Protocol: as §1
These isomonools suppressed the growth of Ehrlich's ascites carcinoma cells to 4.5×10^-3 and 1.5×10^-2, respectively, by 5-day treatment at 10 μM.

[4] = test system: mouse neuroblastoma NAs-1 cells; assay: Test 3: growth of mouse neuroblastoma NAs-1 cells; assay type: cell-based; conditions: for tumor growth suppressing effect: NAs-1 cells; for growth suppressed to: treatment conditions not given
Protocol: as §1
The growth of mouse neuroblastoma NAs-1 cells was suppressed to 7.8×10^-3 and 6.5×10^-3, respectively.

[5] = test system: Ehrlich's ascites cells; assay: Test 6 and Comparing Test 2: uptake of bleomycin into Ehrlich's ascites cells; assay type: cell-based, mouse; conditions: bleomycin 60 μg/ml + isomonool 0.05 μM
Protocol: The amount of bleomycin taken up into Ehrlich's ascites cells was determined as a function of time in the case where bleomycin (60 μg/ml) was used in combination with 14-methyl-1-pentadecanol (0.05 μM).

[6] = test system: Ehrlich's mouse ascites carcinoma cells; assay: Test 7 and Comparing Tests 3 and 4: survival of mice inoculated with Ehrlich's mouse ascites carcinoma cells; assay type: in vivo, male C57BL/6 mice; conditions: bleomycin + isomonool; for Number of surviving mice: of 8
Protocol: 5-week old male C57BL/6 mice were intraperitoneally inoculated with 10^6 Ehrlich's mouse ascites carcinoma cells. Since 24 hours later, a 50 μg/ml solution of bleomycin in 0.25% HCO-60 solution in physiological saline, and a suspension containing 50 μg/ml of bleomycin and 5 μg/ml of 14-methyl-1-pentadecanol were intraperitoneally injected at a dose of 10 mg/kg·day and 11 mg/kg·day, respectively, to each 8 animals/group for 5 days. The survival time of the injected mice was then followed.

[7] = test system: mammary cancer; assay: Test 8: prevention of DMBA-induced mammary cancer; assay type: in vivo, female SD rats; conditions: DMBA 5 mg/body, 20 weeks, unadministered 15/30
Protocol: 6-week old female SD rats (n=90) were treated as follows using 14-methyl-1-pentadecanol as a carcinogenesis-preventing agent.
Unadministered group: n=30. MF powder feed (ORIENTAL KOBO K.K.) was given as a basic feed.
Administered group A: n=30. A test feed was given continually (for 7 days). The feed was prepared by admixing the said carcinogenesis-preventing agent (after emulsified in Pluronic F-68) with the abovementioned basic feed in an amount of 50 mg/kg.
Administered group B: n=30. A test feed was given continually (for 7 days). The feed was prepared by admixing the said carcinogenesis-preventing agent (after emulsified in Pluronic F-68) with the abovementioned basic feed in an amount of 250 mg/kg.
After the aforementioned treatment, 5 mg/body of […] (DMBA: a carcinogenic compound) was administered by injecting subcutaneously in mammary gland 0.1 ml/body of a 50 mg/ml benzanthracene solution. Then, each of the aforementioned groups was given corresponding feed for 20 weeks.
After the completion of the treatment, the rats were sacrificed and observed for the occurrence of mammary cancer.

[8] = test system: stomach carcinoma; assay: Test 9: stomach carcinoma after MNNG; assay type: in vivo, male Wistar rats; conditions: for Histological classification (per animal) / Borrmann's Classification (per animal): 250 mg/kg feed orally for 126 days after MNNG; for Borrmann's Classification (per animal): gross observation; for Survival time (per animal): 250 mg/kg feed, 337 = day of sacrifice; for Cause of death (per animal): 250 mg/kg feed orally
Protocol: 40 male Wistar rats (8-9-week old, body weight; 110 g) were given a drinking water containing 167 μg/ml of N-methyl-N'-nitro-N-nitrosoguanidine (MNNG: a carcinogenic compound) and a feed (dry pellets CE-2, produced by CLEA JAPAN) for 210 days.
The rats were allotted to 5 groups and treated as follows since the 211th day.
Administered group A: n=8. The compound A of the present invention (See below. The definition is to be followed hereinafter) was administered orally in an amount of 250 mg/kg feed for 126 consecutive days.
Administered group B: n=8. The compound B of the present invention was administered orally in an amount of 250 mg/kg feed for 126 consecutive days.
Administered group C: n=8. The compound C of the present invention was administered orally in an amount of 250 mg/kg feed for 126 consecutive days.
Administered group D: n=8. The compound D of the present invention was administered orally in an amount of 250 mg/kg feed for 126 consecutive days.
On the 337th day, the survining rats were sacrificed and the stomachs were (1) subjected to Borrmann's classification according to gross observation and (2) histologically observed (haematoxylin-eosin stain or ASAN stain), and then classified as follows.

[9] = Carcinostatic, carcinostasis-reinforcing and carcinogenesis-preventing activities (general statement)
[10] = test system: bladder mucous membrane; assay: Test 10: pathological changes in bladder mucous membrane after BBN and sodium erythorbate; assay type: in vivo, male F344 rats; conditions: 250 mg/kg in feed; for Number of animals with cancer / Number of animals with papilloma / Number of animals with papillary or tuberous hyperplasia: 28 observed; for Number of animals with cancer: unadministered 19 of 27; for Number of animals with papilloma: unadministered 20 of 27; for Number of animals with papillary or tuberous hyperplasia: unadministered 27 of 27; for Cancer, incidence: unadministered 70; for Papilloma, incidence: unadministered 74; for Papillary or tuberous hyperplasia, incidence: unadministered 100
Excerpt: 5 groups of 6-week old male F344 rats were givn 0.05% (by weight. The definition is to be followed hereinafter) aqueous solution of N-butyl-N-(4-hydroxybutyl)nitrosoamine (BBN: bladder carcinogenic compound), as an initiator, by water supplying bottles for 4 weeks.

[11] = test system: adenocarcinoma 755 cells; assay: Test 2: tumor growth suppression in mice inoculated with adenocarcinoma 755 cells; assay type: in vivo, F1 mongrel mice of C57BL/6 and DBA/2; conditions: s.c., 10 mg/kg/day for 5 days; 10 days after inoculation; control 6.5
Excerpt: 6-week old F1 mongrel mice of C57BL/6 and DBA/2 were inoculated under back skin with 10^6 adenocarcinoma 755 cells. […] The animals were sacrificed 10 days after the inoculation with adenocarcinoma 755 cells, and the tumor was excised.

In the case of `CC(C)CCCCCCCCCCCCCO` [14-methyl-1-pentadecanol], the “mean survival time after inoculation” value [1] is reported as at least 60 days, the “tumor growth suppressing effect” value [2] is reported as “effective” and the activity at 10 µM [2] is reported as 0.22%. The “tumor growth suppressing effect” value [3] was “effective”, the activity at 10 µM [3] was 0.45% and the “tumor growth suppressing effect” value [4] was “effective”. The “growth suppressed to” value [4] was 7.8×10^-3, the Bleomycin uptake ([5]; 30 min) was 0.13 μg/mg Ehrlich's cell and the Bleomycin uptake ([5]; 60 min) was 0.26 μg/mg Ehrlich's cell. The Bleomycin uptake ([5]; 120 min) was 0.39 μg/mg Ehrlich's cell, the Bleomycin uptake ([5]; 180 min) was 0.55 μg/mg Ehrlich's cell and the Bleomycin uptake ([5]; Initial) was 0 μg/mg Ehrlich's cell. The “mean survival time after inoculation” value ([6]; i.p., 11 mg/kg.day for 5 days (Test 7)) was 54.3 days, the “Number of surviving mice” value ([6]; day 14) was 8 and the “Number of surviving mice” value ([6]; day 15) was 8. For the same compound, the “Number of surviving mice” value ([6]; day 16) was 8, the “Number of surviving mice” value ([6]; day 17) was 8 and the “Number of surviving mice” value ([6]; day 18) was 8. The “Number of surviving mice” value ([6]; day 19) was 8, the “Number of surviving mice” value ([6]; day 20) was 8 and the “Number of surviving mice” value ([6]; day 23) was 8. For the same compound, the “Number of surviving mice” value ([6]; day 33) was 8, the “Number of surviving mice” value ([6]; day 41) was 8 and the “Number of surviving mice” value ([6]; day 45) was 6. For the same compound, the “Number of surviving mice” value ([6]; day 52) was 4, the “Number of surviving mice” value ([6]; day 57) was 4 and the “Number of surviving mice” value ([6]; day 60) was 4. The “Number of animals with mammary cancer/Number of tested animals” value ([7]; group A, 50 mg/kg in feed) was 8/30, the “Number of animals with mammary cancer/Number of tested animals” value ([7]; group B, 250 mg/kg in feed) was 4/30 and the “Histological classification (per animal)” value [8] was “I and 0”. The “Borrmann's Classification (per animal)” value [8] was 0, the “Survival time (per animal)” value [8] was 337 days and the “carcinostatic, carcinostasis-reinforcing and carcinogenesis-preventing activities” value [9] was “especially potent in activities”.

In the case of `CC(C)CCCCCCCCCCCCCCCCCO` [18-methyl-1-nonadecanol], the “tumor growth suppressing effect” value [2] is reported as “effective”, the activity at 10 µM [2] is reported as 0.41% and the “tumor growth suppressing effect” value [3] is reported as “effective”. For the same compound, the activity at 10 µM [3] was 1.5%, the “tumor growth suppressing effect” value [4] was “effective” and the “growth suppressed to” value [4] was 6.5×10^-3. The “Number of animals with cancer” value [10] was 0, the “Number of animals with papilloma” value [10] was 0 and the “Number of animals with papillary or tuberous hyperplasia” value [10] was 2. The “Cancer, incidence” value [10] was 0%, the “Papilloma, incidence” value [10] was 0% and the “Papillary or tuberous hyperplasia, incidence” value [10] was 7%.

With `CCC(C)CCCCCCCCCCCCCCCO` (centres unmarked) [16-methyl-1-octadecanol] the mean tumor weight [11] was 2.3 g, the “Cause of death (per animal)” value [8] was “dead in cage” and the “Histological classification (per animal)” value [8] was “I and 0 and I-II”. The “Borrmann's Classification (per animal)” value [8] was 0 and the “Survival time (per animal)” value [8] was 301 days and 312 days and 337 days.

For `CCCC(C)CCCCCCCCCCCCCO` (centres unmarked) [14-methyl-1-heptadecanol], the “Number of animals with cancer” value [10] was 0, the “Number of animals with papilloma” value [10] was 0 and the “Number of animals with papillary or tuberous hyperplasia” value [10] was 0. For the same compound, the “Cancer, incidence” value [10] was 0%, the “Papilloma, incidence” value [10] was 0% and the “Papillary or tuberous hyperplasia, incidence” value [10] was 0%.

In the case of `CCC(C)CCCCCCCCCCCCCO` (centres unmarked) [14-methyl-1-hexadecanol], the “mean survival time after inoculation” value [1] is reported as 57.5 days, the “Histological classification (per animal)” value [8] is reported as “I and 0” and the “Borrmann's Classification (per animal)” value [8] is reported as 0. For the same compound, the “Number of animals with cancer” value [10] was 0, the “Number of animals with papilloma” value [10] was 0 and the “Number of animals with papillary or tuberous hyperplasia” value [10] was 0. For the same compound, the “Cancer, incidence” value [10] was 0%, the “Papilloma, incidence” value [10] was 0% and the “Papillary or tuberous hyperplasia, incidence” value [10] was 0%. The “carcinostatic, carcinostasis-reinforcing and carcinogenesis-preventing activities” value [9] was “especially potent in activities”.

In the case of `CC(C)CCCCCCCCCCCCCCCO` [16-methyl-1-heptadecanol], the mean tumor weight [11] is reported as 1.6 g, the “Cause of death (per animal)” value [8] is reported as “dead in cage” and the “Histological classification (per animal)” value [8] is reported as 0 and I-II. For the same compound, the “Borrmann's Classification (per animal)” value [8] was 0, the “Survival time (per animal)” value [8] was 305 days and 337 days and the “Number of animals with cancer” value [10] was 0. The “Number of animals with papilloma” value [10] was 0, the “Number of animals with papillary or tuberous hyperplasia” value [10] was 1 and the “Cancer, incidence” value [10] was 0%. The “Papilloma, incidence” value [10] was 0% and the “Papillary or tuberous hyperplasia, incidence” value [10] was 4%.

Reference: US5162304A, “Pharmaceutical compositions and methods for treatment and prophylaxis of cancer” (priority 1990, dated 1992)
